Patent US10975037B2 (priority 2018, dated 2021)
Where a name gives a salt, the structure may show the parent alone. Read-outs that look alike come from different tables or passages of the source. Marks after values point to notes of the source that are not given here.

Assays:
full-length human RORγt = full-length human RORγt (Homo sapiens (Human), UniProt P51449); experiment: RORγt (full-length human) reporter assay, conditions A or B, HEK293T cells; format: cell-based; settings: for inhibition at 2 µM: 2 μM compound concentration
Sequence of full-length human RORγt (P51449 other isoform, or with tags, fused parts or gaps): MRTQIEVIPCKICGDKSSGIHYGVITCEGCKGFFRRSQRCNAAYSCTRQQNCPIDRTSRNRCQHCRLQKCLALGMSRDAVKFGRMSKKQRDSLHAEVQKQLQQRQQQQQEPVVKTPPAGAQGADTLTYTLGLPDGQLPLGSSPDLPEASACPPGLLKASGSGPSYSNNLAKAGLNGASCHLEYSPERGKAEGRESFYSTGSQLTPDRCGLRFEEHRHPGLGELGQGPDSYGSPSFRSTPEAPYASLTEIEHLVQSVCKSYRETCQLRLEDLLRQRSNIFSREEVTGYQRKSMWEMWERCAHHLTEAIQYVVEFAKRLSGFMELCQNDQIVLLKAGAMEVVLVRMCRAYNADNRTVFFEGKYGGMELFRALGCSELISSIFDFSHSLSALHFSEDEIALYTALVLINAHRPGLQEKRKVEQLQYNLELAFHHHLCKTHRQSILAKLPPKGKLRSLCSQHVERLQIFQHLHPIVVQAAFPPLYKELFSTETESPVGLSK
Method in brief: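 Dual-luciferase read-out was taken after an overnight (16–20 h) compound exposure. Firefly data were scaled between DMSO-only and saturating reference compound, Renilla-normalized, then plotted against concentration for IC50.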

[1] = target: human RORγt ligand binding domain (RORγt LBD) (Homo sapiens (Human), UniProt P51449); experiment: RORγt ThermoFluor® assay (thermal shift binding)
Sequence of human RORγt ligand binding domain (RORγt LBD) (P51449 other isoform, or with tags, fused parts or gaps): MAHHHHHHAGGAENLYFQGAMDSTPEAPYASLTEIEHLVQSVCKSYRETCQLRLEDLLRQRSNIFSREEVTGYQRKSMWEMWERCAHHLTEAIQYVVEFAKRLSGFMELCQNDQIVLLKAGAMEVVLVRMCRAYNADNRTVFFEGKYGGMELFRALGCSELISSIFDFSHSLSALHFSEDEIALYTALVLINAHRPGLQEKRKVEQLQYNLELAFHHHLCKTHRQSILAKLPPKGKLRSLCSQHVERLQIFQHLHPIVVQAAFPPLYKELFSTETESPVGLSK
Method in brief: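 Thermal shift with 0.065 mg/mL RORγt LBD and 60 μM 1,8-ANS in 100 mM Hepes pH 7.0, 10 mM NaCl, 2.5 mM GSH, 0.002% Tween-20.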

[2] = RORγt (FL) Reporter Assay A or B, IC50, HEK293T cells
[3] = read-out: ThermoFluor® Assay, Kd
[4] = HEK-293T, 0.67 μM compound concentration (footnote ****), read-out: RORγt (FL) Reporter Assay A or B, % inhibition
[5] = HEK-293T, read-out: RORγt (FL) Reporter Assay A or B, % inhibition
[6] = HEK-293T, 3 μM compound concentration (footnote *), read-out: RORγt (FL) Reporter Assay A or B, % inhibition
[7] = HEK-293T, 0.22 μM compound concentration (footnote *******), read-out: RORγt (FL) Reporter Assay A or B, % inhibition

CCn1nc(C(=O)NC[C@]2(O)CC[C@@H](S(C)(=O)=O)CC2)c(C#N)c1-c1ccc(CC(C)(C)C(F)(F)F)cc1OC [Example 126, 4-Cyano-1-ethyl-N-(((1s,4s)-1-hydroxy-4-(methylsulfonyl)cyclohexyl)methyl)-5-(2-methoxy-4-(3,3,3-trifluoro-2,2-dimethylpropyl)phenyl)-1H-pyrazole-3-carboxamide]
inhibition at 6 µM (full-length human RORγt; HEK-293T, read-out: RORγt (FL) Reporter Assay A or B, % inhibition @ 6 μM): 101% | IC50 (full-length human RORγt; [2]): 84 nM | Kd [1, 3]: 12 nM

CCn1nc(C(=O)NC[C@]2(O)CC[C@@H](S(C)(=O)=O)CC2)c(C)c1-c1ccc(CCCC(F)(F)F)cc1OC [Example 83, 1-Ethyl-N-(((1s,4s)-1-hydroxy-4-(methylsulfonyl)cyclohexyl)methyl)-5-(2-methoxy-4-(4,4,4-trifluorobutyl)phenyl)-4-methyl-1H-pyrazole-3-carboxamide]
inhibition at 0.67 µM (full-length human RORγt; [4]): 87% | IC50 (full-length human RORγt; [2]): 33 nM | Kd [1, 3]: 11 nM

CCn1nc(C(=O)NC[C@@H]2CC[C@@H](S(C)(=O)=O)C[C@H]2O)c(Cl)c1-c1ccc(CC(C)(C)C(F)(F)F)cc1OC(F)F (single isomer, unassigned) [Example 22, 4-Chloro-5-(2-(difluoromethoxy)-4-(3,3,3-trifluoro-2,2-dimethylpropyl)phenyl)-1-ethyl-N-(((1S*,2R*,4R*)-2-hydroxy-4-(methylsulfonyl)cyclohexyl)methyl)-1H-pyrazole-3-carboxamide]
inhibition at 1 µM (full-length human RORγt; HEK-293T, 1 μM compound concentration (footnote ***), read-out: RORγt (FL) Reporter Assay A or B, % inhibition): 100% | IC50 (full-length human RORγt; [2]): 4.2 nM | Kd ([1]; ThermoFluor® Assay, Kd): 0.44 nM

CCn1nc(C(=O)NC[C@]2(O)CC[C@@H](S(C)(=O)=O)CC2)c(Cl)c1-c1ccc(CCC(C)C)cc1OC [Example 75, 4-Chloro-1-ethyl-N-(((1s,4s)-1-hydroxy-4-(methylsulfonyl)cyclohexyl)methyl)-5-(4-isopentyl-2-methoxyphenyl)-1H-pyrazole-3-carboxamide]
inhibition at 2 µM (full-length human RORγt; [5]): 62% | IC50 (full-length human RORγt; [2]): 25 nM | Kd [1, 3]: 0.88 nM

CC(C)(Cc1ccc(-c2c(Cl)c(C(=O)NC[C@]3(O)CC[C@@H](S(C)(=O)=O)CC3)nn2CCCC#N)c(OC(F)F)c1)C(F)(F)F [Example 229, 4-Chloro-1-(3-cyanopropyl)-5-(2-(difluoromethoxy)-4-(3,3,3-trifluoro-2,2-dimethylpropyl)phenyl)-N-(((1s,4s)-1-hydroxy-4-(methylsulfonyl)cyclohexyl)methyl)-1H-pyrazole-3-carboxamide]
inhibition at 3 µM (full-length human RORγt; [6]): 78% | IC50 (full-length human RORγt; [2]): 9 nM | Kd [1, 3]: 3.1 nM

CCn1nc(C(=O)NC[C@H]2CC[C@H](S(C)(=O)=O)CC2)c(Cl)c1-c1ccc(CCC(F)(F)F)cc1OC [Example 38, 4-Chloro-1-ethyl-5-(2-methoxy-4-(3,3,3-trifluoropropyl)phenyl)-N-(((1r,4r)-4-(methylsulfonyl)cyclohexyl)methyl)-1H-pyrazole-3-carboxamide]
inhibition at 0.67 µM (full-length human RORγt; [5]): 84% | IC50 (full-length human RORγt; [2]): 12 nM | Kd [1, 3]: 3.3 nM

CCOC(=O)[C@]1(CNC(=O)c2nn(CC)c(-c3ccc(N[C@H](C)C(F)(F)F)cc3OC)c2Cl)CC[C@@H](S(C)(=O)=O)CC1 (relative stereo) [Example 95, Ethyl (1r*,4R*)-1-((4-chloro-1-ethyl-5-(2-methoxy-4-(((R)-1,1,1-trifluoropropan-2-yl)amino)phenyl)-1H-pyrazole-3-carboxamido)methyl)-4-(methylsulfonyl)cyclohexane-1-carboxylate]
inhibition at 2 µM (full-length human RORγt; [5]): 76% | IC50 (full-length human RORγt; [2]): 380 nM | Kd ([1]; ThermoFluor® Assay, Kd): 110 nM

CCn1nc(C(=O)NC[C@H]2CC[C@H](S(C)(=O)=O)CO2)c(Cl)c1-c1ccc(CC(C)(C)C(F)(F)F)cc1OC(F)F (single isomer, unassigned) [Example 15, 4-Chloro-5-(2-(difluoromethoxy)-4-(3,3,3-trifluoro-2,2-dimethylpropyl)phenyl)-1-ethyl-N-(((2R*,5S)-5-(methylsulfonyl)tetrahydro-2H-pyran-2-yl)methyl)-1H-pyrazole-3-carboxamide]
inhibition at 0.67 µM (full-length human RORγt; [4]): 113% | IC50 (full-length human RORγt; [2]): 5.4 nM | Kd ([1]; ThermoFluor® Assay, Kd): 0.13 nM

CCn1nc(C(=O)NC[C@@H]2CC[C@@H](S(C)(=O)=O)C[NH+]2CC(=O)ON)c(Cl)c1-c1ccc(CC(C)(C)C(F)(F)F)cc1OC(F)F (stereo in doubt) [Example 63, N-(((2S*,5R*)-1-(2-(Aminooxy)-2-oxoethyl)-5-(methylsulfonyl)piperidin-2-yl)methyl)-4-chloro-5-(2-(difluoromethoxy)-4-(3,3,3-trifluoro-2,2-dimethylpropyl)phenyl)-1-ethyl-1H-pyrazole-3-carboxamide Trifluoroacetic Acid Salt]
inhibition at 3 µM (full-length human RORγt; [6]): 109% | IC50 (full-length human RORγt; [2]): 8 nM | Kd ([1]; ThermoFluor® Assay, Kd): 1 nM

CCn1nc(C(=O)NC[C@H]2CC[C@H](S(C)(=O)=O)CC2)c(Cl)c1-c1ccc(C[C@@H](C)C(F)(F)F)cc1OC(F)F (single isomer, unassigned) [Example 135, 4-Chloro-5-(2-(difluoromethoxy)-4-((R*)-3,3,3-trifluoro-2-methylpropyl)phenyl)-1-ethyl-N-(((1r,4R)-4-(methylsulfonyl)cyclohexyl)methyl)-1H-pyrazole-3-carboxamide]
inhibition at […] (full-length human RORγt; HEK-293T, 0.33 μM compound concentration (footnote *****), read-out: RORγt (FL) Reporter Assay A or B, % inhibition): 83% | IC50 (full-length human RORγt; [2]): 11 nM | Kd ([1]; ThermoFluor® Assay, Kd): 0.46 nM

CCn1nc(C(=O)NC[C@]2(O)CC[C@@H](S(C)(=O)=O)CC2)c(Cl)c1-c1ccc(CCCC(F)(F)F)cc1OC(F)F [Example 77, 4-Chloro-5-(2-(difluoromethoxy)-4-(4,4,4-trifluorobutyl)phenyl)-1-ethyl-N-(((1s,4s)-1-hydroxy-4-(methylsulfonyl)cyclohexyl)methyl)-1H-pyrazole-3-carboxamide]
inhibition at 2 µM (full-length human RORγt; [5]): 96% | IC50 (full-length human RORγt; [2]): 5.6 nM | Kd [1, 3]: 1.2 nM

CCn1nc(C(=O)NC[C@H]2CC[C@H](S(=O)(=O)NC(N)=O)CC2)c(Cl)c1-c1ccc(CC(C)(C)C(F)(F)F)cc1OC(F)F [Example 69, N-(((1r,4r)-4-(N-Carbamoylsulfamoyl)cyclohexyl)methyl)-4-chloro-5-(2-(difluoromethoxy)-4-(3,3,3-trifluoro-2,2-dimethylpropyl)phenyl)-1-ethyl-1H-pyrazole-3-carboxamide]
RORγt (FL) Reporter Assay A or B, % inhibition (full-length human RORγt; 3 μM compound concentration (footnote *)): 100* % | IC50 (full-length human RORγt; HEK293T cells, read-out: RORγt (FL) Reporter Assay A or B, IC50): 51 nM | Kd [1, 3]: 0.29 nM

CCn1nc(C(=O)NC[C@H]2CC[C@H](S(=O)(=O)CC)CC2)c(Cl)c1-c1ccc(CC(C)(C)C(F)(F)F)cc1OC(F)F [Example 133, 4-Chloro-5-(2-(difluoromethoxy)-4-(3,3,3-trifluoro-2,2-dimethylpropyl)phenyl)-1-ethyl-N-(((1r,4r)-4-(ethylsulfonyl)cyclohexyl)methyl)-1H-pyrazole-3-carboxamide]
inhibition at […] (full-length human RORγt; [7]): 107% | IC50 (full-length human RORγt; [2]): 4.6 nM | Kd ([1]; ThermoFluor® Assay, Kd): 0.2 nM

CCn1nc(C(=O)NC[C@H]2CC[C@H](S(C)(=O)=O)CC2)c(Cl)c1-c1ccc(CC(C)(C)C(F)(F)F)cc1C [Example 182, 4-Chloro-1-ethyl-5-(2-methyl-4-(3,3,3-trifluoro-2,2-dimethylpropyl)phenyl)-N-(((1r,4r)-4-(methylsulfonyl)cyclohexyl)methyl)-1H-pyrazole-3-carboxamide]
inhibition at […] (full-length human RORγt; [7]): 81% | IC50 (full-length human RORγt; [2]): 19 nM | Kd [1, 3]: 1 nM
